# Assay results from ChEMBL document CHEMBL4725259 (Bioorg Med Chem, 2020).
# Active and inactive are the calls of the source. The calls are words filed in the database; no cut-off is given here.
# Experiments:
# [1] = molecular target: C-C chemokine receptor type 8 (Homo sapiens, UniProt P51685); experiment: Antagonist activity at human CCR8 expressed in CHO-K1 cells at 20 uM by PathHunter beta-arrestin assay relative to control; assay type: cell-based; details: filed as antagonist
# [2] = molecular target: T1, C-C chemokine receptor type 3 (Homo sapiens, UniProt P51677); experiment: Antagonist activity at human CCR3 expressed in CHO-K1 cells by PathHunter beta-arrestin assay; assay type: cell-based
# T1 sequence (P51677 whole entry): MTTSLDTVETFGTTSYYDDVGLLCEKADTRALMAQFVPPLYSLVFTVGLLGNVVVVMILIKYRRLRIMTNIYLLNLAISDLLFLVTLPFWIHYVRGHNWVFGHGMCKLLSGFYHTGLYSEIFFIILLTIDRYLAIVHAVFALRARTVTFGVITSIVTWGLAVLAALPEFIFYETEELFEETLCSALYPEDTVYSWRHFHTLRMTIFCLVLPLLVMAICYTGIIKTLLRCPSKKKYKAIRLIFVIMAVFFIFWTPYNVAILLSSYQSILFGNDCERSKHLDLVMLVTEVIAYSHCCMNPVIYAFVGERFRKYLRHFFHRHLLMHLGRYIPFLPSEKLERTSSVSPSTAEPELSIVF
# [3] = molecular target: T2, CX3C chemokine receptor 1 (Homo sapiens) (UniProt P49238); experiment: Antagonist activity at human CX3CR1 expressed in CHO-K1 cells at 20 uM by PathHunter beta-arrestin assay relative to control; assay type: cell-based; details: filed as antagonist
# T2 sequence (whole entry): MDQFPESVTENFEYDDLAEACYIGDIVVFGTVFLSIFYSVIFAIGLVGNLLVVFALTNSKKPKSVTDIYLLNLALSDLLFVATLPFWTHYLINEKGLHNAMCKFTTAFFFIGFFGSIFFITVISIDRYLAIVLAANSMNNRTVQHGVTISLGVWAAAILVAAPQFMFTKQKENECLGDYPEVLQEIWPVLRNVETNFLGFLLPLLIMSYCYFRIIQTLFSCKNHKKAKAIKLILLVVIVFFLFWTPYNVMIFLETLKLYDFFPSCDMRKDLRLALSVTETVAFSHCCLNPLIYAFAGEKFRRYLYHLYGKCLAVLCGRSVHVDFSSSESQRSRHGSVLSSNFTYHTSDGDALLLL
# [4] = molecular target: T3, Prolactin-releasing peptide receptor (Homo sapiens) (UniProt P49683); experiment: Antagonist activity at human PRLHR expressed in CHO-K1 cells at 20 uM by PathHunter beta-arrestin assay relative to control; assay type: cell-based; details: filed as antagonist
# T3 sequence (whole entry): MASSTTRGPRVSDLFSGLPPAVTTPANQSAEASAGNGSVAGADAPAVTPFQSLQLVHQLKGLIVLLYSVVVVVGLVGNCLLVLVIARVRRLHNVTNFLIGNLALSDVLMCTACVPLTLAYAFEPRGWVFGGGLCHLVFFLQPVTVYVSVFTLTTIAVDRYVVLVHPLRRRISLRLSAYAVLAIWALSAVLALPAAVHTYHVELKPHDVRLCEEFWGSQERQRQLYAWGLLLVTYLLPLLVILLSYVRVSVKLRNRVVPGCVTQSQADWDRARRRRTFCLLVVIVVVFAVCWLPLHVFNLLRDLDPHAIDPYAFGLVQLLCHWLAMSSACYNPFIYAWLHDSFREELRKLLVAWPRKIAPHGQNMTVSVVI
# Vasopressin V2 receptor = Vasopressin V2 receptor (Homo sapiens, UniProt P30518); experiment: Antagonist activity at human AVPR2 at 20 uM by PathHunter beta-arrestin assay relative to control; details: filed as antagonist
# Sequence of Vasopressin V2 receptor (P30518 whole entry): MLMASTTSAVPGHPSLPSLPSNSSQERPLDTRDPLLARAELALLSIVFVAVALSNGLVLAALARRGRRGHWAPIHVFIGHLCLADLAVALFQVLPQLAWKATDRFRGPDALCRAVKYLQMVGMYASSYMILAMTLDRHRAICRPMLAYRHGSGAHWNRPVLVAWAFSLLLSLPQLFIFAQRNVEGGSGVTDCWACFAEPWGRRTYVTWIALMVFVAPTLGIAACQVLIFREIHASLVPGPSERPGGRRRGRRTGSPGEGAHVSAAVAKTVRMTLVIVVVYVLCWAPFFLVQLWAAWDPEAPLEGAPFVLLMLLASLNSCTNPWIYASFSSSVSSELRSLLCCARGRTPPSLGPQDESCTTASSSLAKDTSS
# [5] = molecular target: C-X-C chemokine receptor type 4 (Homo sapiens, UniProt P61073); experiment: Antagonist activity at human CXCR4 expressed in mouse C2C12 cells by PathHunter beta-arrestin assay; assay type: cell-based
# Sequence of C-X-C chemokine receptor type 4 (P61073 whole entry): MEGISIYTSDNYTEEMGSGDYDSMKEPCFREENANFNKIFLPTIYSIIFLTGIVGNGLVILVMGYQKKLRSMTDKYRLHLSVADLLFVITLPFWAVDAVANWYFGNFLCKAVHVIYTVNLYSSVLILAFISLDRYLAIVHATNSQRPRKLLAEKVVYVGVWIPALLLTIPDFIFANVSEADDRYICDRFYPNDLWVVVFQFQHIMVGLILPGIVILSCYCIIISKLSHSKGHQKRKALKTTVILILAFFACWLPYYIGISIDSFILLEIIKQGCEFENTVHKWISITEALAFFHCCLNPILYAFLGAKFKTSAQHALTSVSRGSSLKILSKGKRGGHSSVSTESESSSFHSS
# U2OS = experiment: Antagonist activity at NPSR1B in human U2OS cells at 20 uM by PathHunter beta-arrestin assay relative to control; assay type: cell-based; details: filed as antagonist
# [6] = molecular target: T4, C-C chemokine receptor type 3 (Homo sapiens) (UniProt P51677); experiment: Antagonist activity at human CCR3 expressed in CHO-K1 cells at 20 uM by PathHunter beta-arrestin assay relative to control; assay type: cell-based; details: filed as antagonist
# T4 sequence (whole entry): T1 sequence (P51677 whole entry)
# [7] = molecular target: T5, Oxytocin receptor (Homo sapiens) (UniProt P30559); experiment: Agonist activity at human OXTR expressed in CHO-K1 cells at 20 uM by PathHunter beta-arrestin assay relative to control; assay type: cell-based
# T5 sequence (whole entry): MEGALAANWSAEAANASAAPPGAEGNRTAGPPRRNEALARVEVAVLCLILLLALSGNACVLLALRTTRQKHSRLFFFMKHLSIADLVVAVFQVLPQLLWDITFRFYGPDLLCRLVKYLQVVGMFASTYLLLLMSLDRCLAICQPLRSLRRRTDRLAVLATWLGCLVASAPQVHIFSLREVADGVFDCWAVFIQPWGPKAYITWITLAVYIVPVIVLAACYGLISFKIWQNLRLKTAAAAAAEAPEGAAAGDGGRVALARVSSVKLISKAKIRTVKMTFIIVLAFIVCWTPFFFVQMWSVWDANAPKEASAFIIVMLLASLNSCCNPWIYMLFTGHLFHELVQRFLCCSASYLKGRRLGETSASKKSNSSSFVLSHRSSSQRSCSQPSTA
# Oxytocin receptor = molecular target: T6, Oxytocin receptor (Homo sapiens, UniProt P30559); experiment: Antagonist activity at human OXTR expressed in CHO-K1 cells by PathHunter beta-arrestin assay; assay type: cell-based
# T6 sequence (P30559 whole entry): T5 sequence (whole entry)
# [8] = molecular target: T7, Vasopressin V1b receptor (Homo sapiens) (UniProt P47901); experiment: Antagonist activity at human AVPR1B expressed in CHO-K1 cells at 20 uM by PathHunter beta-arrestin assay; assay type: cell-based; details: filed as antagonist
# T7 sequence (whole entry): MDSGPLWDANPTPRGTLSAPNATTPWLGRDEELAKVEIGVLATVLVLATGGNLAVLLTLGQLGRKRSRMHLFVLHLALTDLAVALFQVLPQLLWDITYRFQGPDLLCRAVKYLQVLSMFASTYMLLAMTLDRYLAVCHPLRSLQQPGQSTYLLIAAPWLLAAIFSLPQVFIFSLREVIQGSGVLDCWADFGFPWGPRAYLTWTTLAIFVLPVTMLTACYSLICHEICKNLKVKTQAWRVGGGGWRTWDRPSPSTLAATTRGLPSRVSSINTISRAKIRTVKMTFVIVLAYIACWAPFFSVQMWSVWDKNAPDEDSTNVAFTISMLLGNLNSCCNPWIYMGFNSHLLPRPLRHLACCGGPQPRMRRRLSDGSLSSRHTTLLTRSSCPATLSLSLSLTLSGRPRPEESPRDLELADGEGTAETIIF
# Sequence of C-C chemokine receptor type 8 (P51685 whole entry): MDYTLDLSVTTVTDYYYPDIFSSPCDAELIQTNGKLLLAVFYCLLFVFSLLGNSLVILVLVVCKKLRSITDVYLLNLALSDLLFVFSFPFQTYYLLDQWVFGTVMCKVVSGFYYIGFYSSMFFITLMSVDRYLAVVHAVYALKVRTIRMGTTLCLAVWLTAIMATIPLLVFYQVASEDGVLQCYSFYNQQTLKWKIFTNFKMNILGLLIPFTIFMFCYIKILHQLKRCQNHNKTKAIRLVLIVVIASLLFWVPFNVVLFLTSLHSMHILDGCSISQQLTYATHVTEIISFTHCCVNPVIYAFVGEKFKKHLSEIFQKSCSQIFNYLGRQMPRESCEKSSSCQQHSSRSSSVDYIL
inhibition [1],IC50 [2],inhibition [3],inhibition [4],inhibition (Vasopressin V2 receptor),IC50 [5],inhibition [6],Activity [7],IC50 (Oxytocin receptor),inhibition [8],SMILES,inhibition (U2OS)
90%,8.3 µM,92%,19%,7%,7.94 µM,112%,inactive,–,–,COC(=O)[C@@H]1[C@H]2C[C@@H](c3[nH]c4ccccc4c3CCn3cc(-c4cccc(Cl)c4)nn3)N(C#N)C[C@@H]2CC[C@@H]1O,62%
88%,–,72%,63%,83%,–,89%,inactive,1.16 µM,Active,COC(=O)[C@@H]1[C@H]2C[C@@H]3N(CC[C@@]34C(=O)N(Cc3cccc(OC)c3)c3ccccc34)C[C@@H]2CC[C@@H]1OCc1cccc(OC)c1,48%
